The structures appear in SMILES notation. “Also recorded” adds a separate entry of the source. A value given as a limit tells only on which side of the number the result lay.

The test system of data set [1] is human platelet-mediated thrombus formation. Put plainly: In vivo human thrombus formation, laser injury, VWF HA1 mice model. To be noted: platelets preincubated with BTK inhibitor (0.1, 0.5 or 1 μM).
The test system of data set [2] is platelet collagen receptor glycoprotein VI (GPVI). Put plainly: GPVI (convulxin-induced) platelet aggregation. To be noted: for inhibition of GPVI platelet aggregation: FIG. 16 and FIG. 17. It is filed as cell-based, human. On the procedure: GPVI platelet aggregation was measured for Formula (II) and ibrutinib. Blood was obtained from untreated humans, and platelets were purified from […] by centrifugation. Cells were resuspended to a final concentration of 350,000/μL in buffer containing 145 mmol/L NaCl, 10 mmol/L HEPES, 0.5 mmol/L Na2HPO4, 5 mmol/L KCl, 2 mmol/L MgCl2, 1 mmol/L CaCl2, and 0.1% glucose, at pH 7.4. Stock solutions of […] were prepared on the day of experimentation and added to platelet suspensions 5 minutes (37° C., 1200 rpm) before the induction of aggregation. Aggregation was assessed with a Chronolog Lumi-Aggregometer (model 540 VS; Chronolog, Havertown, Pa.) and permitted to proceed for 6 minutes after the addition of agonist. The results are reported as maximum percent change in light transmittance from baseline with platelet buffer used as a reference.
In FIG. 17, the results of CVX-induced (250 ng/mL) human platelet aggregation results before and 15 minutes after administration of the BTK inhibitors to 6 healthy individuals are shown.

Another data set deals with Raji cells. Put plainly: Rituximab ADCC 51Cr release, healthy donor NK cells vs Raji cells. In kind it is cell-based, human. Conditions: 1 μM, E:T 25:1.
For another data set, the system named is Th17 cells. Briefly: CD4+ T cell skewing culture, Th17. To be noted: FIG. 24. In kind it is cell-based. On the procedure: (§1) Enriched CD4^+ T cells are plated on 24-well culture dishes that have been precoated 2 hr with 250 μL anti-TCRP3 (0.5 μg/mL) plus anti-CD28 (5 μg/mL) at 37° C. in PBS. The cells are then supplemented with media containing BTK inhibitors along with the skewing cytokines as indicated in the following. The Th17 and Treg cultures are grown for 4 days before analysis. The cells are maintained for an additional 3 days with skewing cytokines (Th17; 20 ng/mL IL-6, 0.5 ng/mL TGF-β, […] Treg; 0.5 ng/mL TGF-β, 5 μg/mL IL-4, 5 μg/mL IFN-γ) and are supplemented with IL2 as a growth factor.

Data set [3] relates to regulatory T cell (Treg) development. Briefly: CD4+ T cell skewing culture, Treg. In kind it is cell-based. Conditions: FIG. 25. How it is done: as §1
The test system of data set [4] is canine spontaneous B-cell lymphoma. To be noted: out of 8 dogs treated; Honigberg et al. 2010; cited from earlier work.
For data set [5] the following is noted: within the tested dose range; cited from earlier work.
Data set [6] has as its system BCR activation markers CD69 and CD86. Put plainly: In vivo potency: IgM-stimulated BCR activation markers by flow cytometry. Conditions: mice gavaged, 3 h post-dose, BCR stimulated with IgM. On the procedure:
Mice were gavaged at increasing drug concentration and sacrificed at one time point (3 h post-dose). BCR is stimulated with IgM and the expression of activation markers CD69 and CD86 are monitored by flow cytometry to determine EC50's.
CD86 and CD69 are cell surface proteins that are BCR activation markers. […] BCR was stimulated with IgM and the expression of activation marker CD69 and CD86 are monitored by flow cytometry and to determine EC50 values.
(In general: A flow cytometer gives signals particle by particle.)

Data set [7] relates to canine spontaneous B-cell lymphoma. Briefly: Study of canine spontaneous B-cell lymphoma. It is filed as in vivo, dogs. To be noted: 2.5 mg/kg once daily oral. The text has this:
Formula (II) is currently being evaluated in an ongoing study of canine spontaneous B-cell lymphoma. […] To date, partial remission (PR), per Veterinary Cooperative Oncology Group criteria for assessment of response in peripheral nodal lymphoma, has been observed in 2 of 6 dogs. D. M. Vali, et al., Vet. Comp. Oncol. 8, 28-37 (2010). […] L. A. Honigberg, et al., Proc. Nat. Acad. Sci. USA, 107, 13075-13080 (2010).

Data set [8] deals with 80 known pharmacologic targets such as G-protein-coupled receptors, nuclear receptors, proteases, and ion channels. Put plainly: Binding assays with 80 known pharmacologic targets. Conditions: screened at 10 μM.
Another data set relates to EGFR phosphorylation. Put plainly: In vitro EGFR phosphorylation in A431 cells. It is filed as cell-based. Conditions: 10 μM, A431 human epidermoid cancer cell line.
Data set [9] is described as follows: GLP functional observation battery in rats. It is filed as in vivo. To be noted: doses through 300 mg/kg. The source says: (§2) Formula (II) was well tolerated in standard in vivo Good Laboratory Practices (GLP) studies of pharmacologic safety.
Data set [10] is described as follows: Study of respiratory function in rats. It is filed as in vivo. To be noted: doses through 300 mg/kg.
Text: as §2

The nature of data set [11]: Cardiovascular function study in awake telemeterized beagle dogs. In kind it is in vivo. To be noted: male beagle dogs, single doses through 30 mg/kg.
Text: as §2

The target in another data set is CYP3A4 (Homo sapiens, UniProt P08684). Put plainly: In vitro loss of parent drug as catalyzed by CYPs. It is filed as in vitro ADME.
Sequence of CYP3A4 (P08684 whole entry): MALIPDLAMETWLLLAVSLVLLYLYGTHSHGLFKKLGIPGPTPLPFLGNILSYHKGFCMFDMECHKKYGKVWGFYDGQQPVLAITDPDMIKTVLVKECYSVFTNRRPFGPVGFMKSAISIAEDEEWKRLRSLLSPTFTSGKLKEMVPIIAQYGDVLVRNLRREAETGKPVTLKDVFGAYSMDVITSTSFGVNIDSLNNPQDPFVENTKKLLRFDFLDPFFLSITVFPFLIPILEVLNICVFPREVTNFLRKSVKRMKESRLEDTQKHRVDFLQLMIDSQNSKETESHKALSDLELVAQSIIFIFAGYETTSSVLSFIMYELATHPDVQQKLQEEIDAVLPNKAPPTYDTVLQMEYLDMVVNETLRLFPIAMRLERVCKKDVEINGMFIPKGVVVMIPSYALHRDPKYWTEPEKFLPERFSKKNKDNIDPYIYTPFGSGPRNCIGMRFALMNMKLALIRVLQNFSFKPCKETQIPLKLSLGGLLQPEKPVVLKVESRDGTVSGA
The nature of data set [12]: In vitro metabolism in hepatocytes with 14C-labeled compound. It is filed as in vitro ADME, mouse, rat, dog, rabbit, monkey, and human.
Data set [13] in a line: Preliminary evaluation of metabolism in plasma, bile and urine. It is filed as in vivo. Conditions: bile, urine of rats, dogs, monkeys.
A short description of data set [14]: Glutathione binding and depletion in vitro.
For the next data set, the system named is CYP enzymes. Put plainly: Nonclinical CYP interaction studies. In kind it is in vitro ADME.
The test system of data set [15] is NK cells and monocytic MDSC subsets. Briefly: Flow cytometry of peripheral blood cell subsets in CLL patients. In kind it is in vivo, human. Conditions: patients with falling ALC counts, 28 days of dosing. How it is done: PBMCs were stained with monoclonal antibodies conjugated to fluorescent tags (flourochromes) to identify cell subsets via flow cytometry. Non-viable cells were excluded from the analysis using the dye 7-aminoactinomycin D (7-AAD). To produce the metric of percent change, the following steps were taken. First, each cell subset was defined by hierarchical flow cytometry gating. Then, the change in frequency (between day 1 and day 28) was calculated for each cell subset. MDSC subsets were measured as a % of all myeloid cells. T cell subsets were measured as a % of all CD3^+ cells, and NK cells were measured as a % of all live CD45^+ cells. […] A cycle is 28 days. A trend is observed wherein patients with decreasing ALC % had increasing MDSC (monocytic) %. This may include patients who had quickly resolving lymphocytosis and those with no initial lymphocytosis. […] This may include patients who had quickly resolving lymphocytosis and those having no initial lymphocytosis. The effects in FIG. 9 to FIG. 12 are observed in multiple cohorts, at doses including 100 mg BID, 200 mg QD, and 400 mg QD. In FIG. 13 and FIG. 14, the effects on NK cells and MDSC cells are compared to a number of other markers versus % change in ALC at C1D28 and C2D28. These other markers include CD4+ T cells, CD8+ T cells, CD4+/CD8+ T cell ratio, NK-T cells, PD-1+CD4+ T cells, and PD-1+CD8+ T cells. […]

The next data set concerns NK cells. Briefly: Antibody-dependent NK cell degranulation, CD107a flow cytometry. To be noted: rituximab-coated DHL-4 target cells. In kind it is cell-based, human.

Consider `C=CC(=O)Nc1cccc(Nc2nc(Nc3ccc(OCCOC)cc3)ncc2F)c1` [CC-292, N-(3-((5-fluoro-2-((4-(2-methoxyethoxy)phenyl)amino)pyrimidin-4-yl)amino)phenyl)acrylamide, reference compound], for which the “effect on human platelet-mediated thrombus formation” value in [1] is listed as “effect similar to ibrutinib”.

Regarding `C=CC(=O)N1CCC[C@@H](n2nc(-c3ccc(Oc4ccccc4)cc3)c3c(N)ncnc32)C1` [Ibrutinib, 1-[(3R)-3-[4-amino-3-(4-phenoxyphenyl)-1H-pyrazolo[3,4-d]pyrimidin-1-yl]piperidin-1-yl]prop-2-en-1-one, reference compound], the “inhibition of GPVI platelet aggregation” value in [2] is on record as “significantly inhibits GPVI platelet aggregation”. The “effect on rituximab-mediated ADCC against Raji cells” value in the data set with Raji cells is “strongly inhibited”. The “effect on Th17 cells” value in the data set with Th17 cells was “profound inhibition of Th17 cells; also recorded: strongly inhibits Th17 cells”. The “effect on Treg development” value in data set [3] is on record as “increase in Treg development; also recorded: strongly increases Treg development”. For the same molecule, in [4], the “dogs with PR” value was 3 dogs. Further, the “maximum tolerated dose (MTD)” value in data set [5] was “No maximum tolerated dose (MTD) was apparent”.

Broadly, the IC50 is the concentration needed to halve the response being measured. A low value points to inhibition by little substance. As for `CC#CC(=O)N1CCC[C@H]1c1nc(-c2ccc(C(=O)Nc3ccccn3)cc2)c2c(N)nccn12` [Formula (II), (S)-4-(8-amino-3-(1-(but-2-ynoyl)pyrrolidin-2-yl)imidazo[1,5-a]pyrazin-1-yl)-N-(pyridin-2-yl)benzamide], in [6], the “in vivo potency at inhibiting expression of activation markers CD69 and CD86” value is listed as “more potent at inhibiting expression of activation makers than ibrutinib”. In addition, the drug-related adverse events result in [7] is given as “No drug-related adverse events”. Besides, the “partial remission (PR)” value in [7] (average 22 days, preliminary) is recorded as 2 of 6. For the same molecule, the “activity in binding screen of 80 targets” value in [8] is “significant activity only against the A3 adenosine receptor”. The “inhibition of in vitro EGFR phosphorylation” value in the data set with EGFR phosphorylation is reported as “no inhibition”. Further, in data set [9], the “neurobehavioral effects or body temperature” value is “no adverse effects”. The respiratory function result in data set [10] is given as “no treatment-related adverse effects”. The “body temperature, cardiovascular, or ECG (including QT interval) parameters” value in data set [11] is “no meaningful changes”. For the same molecule, the “CYP responsible for metabolism” value at CYP3A4 is reported as “metabolized by CYP3A4”. Also, the unique human metabolite entry in [12] (hepatocytes) was “No unique human metabolite was identified”. In addition, the metabolites in hepatocytes result in data set [12] (mouse, rat, dog, rabbit, monkey, human hepatocytes) is “two mono-oxidized metabolites and a glutathione conjugate”. The metabolic processes result in [13] was “oxidation, glutathione binding, and hydrolysis”. Besides, in data set [14], the “glutathione binding / depletion” value was “binds to glutathione but does not deplete glutathione”. For the same molecule, the “drug-drug interaction potential via CYP enzymes” value with CYP enzymes is given as “very unlikely to cause clinical drug-drug interactions”. The “frequency of NK cells and monocytic MDSC subsets in peripheral blood” value in data set [15] was “increase in frequency in the peripheral blood”. Besides, the “effect on human platelet-mediated thrombus formation” value in data set [1] was “no significant effect”. Further, in data set [2], the “inhibition of GPVI platelet aggregation” value is “does not”. The molecule also returned an IC50 in data set [2] (Homo sapiens, Platelet, FIG. 16) of 1.15 µM. For the same molecule, in the data set with NK cells, the “reduction of rituximab-stimulated NK cell degranulation” value was below 2%. The “effect on Th17 cells” value in the data set on Th17 cells is “no adverse effect”. Further, the “effect on Treg development” value in data set [3] was “no adverse effects; also recorded: no effect”. Moreover, in the data set with relapsed/refractory CLL (All (N = 44)), the “Grade of Diarrhea” value was found to be 1, the “Grade of Headache” value is reported as “½”, the “Grade of Increased tendency to bruise” value stood at 1 and the “Grade of Petechiae” value was 1. For the same molecule, in the data set on relapsed/refractory CLL (All (N = 44)), the “Treatment-related adverse event: Diarrhea” value is recorded as 4 (9) n (%), the “Treatment-related adverse event: Headache” value is 7 (16) n (%), the “Treatment-related adverse event: Increased tendency to bruise” value is on record as 6 (14) n (%) and the “Treatment-related adverse event: Petechiae” value was 3 (7) n (%). Also, the “progression-free survival (PFS) in comparison to ibrutinib” value in the data set with relapsed/refractory CLL (Kaplan-Meier, Log-Rank p-value 0.0206) was “An improvement in survival and a reduction in risk”. In the data set with relapsed/refractory CLL (relapsed/refractory CLL), the MTD entry was “not reached”, the “dose-limiting toxicities (DLTs)” value is “No DLTs were observed”, the “grade of AEs observed” value is “only grade 1 AEs were observed” and the lymphocytosis result is “A lack of lymphocytosis”. The “treatment-related serious adverse events (SAEs)” value in the data set on relapsed/refractory CLL (relapsed/refractory CLL) was “No treatment-related serious adverse events (SAEs) were observed”. Moreover, in the data set on relapsed/refractory CLL (to date), the “progression in patients with 17p deletion” value is given as “no 17p patients have progressed”.

The values above are taken from patent publication US10272083B2, “Methods of treating chronic lymphocytic leukemia and small lymphocytic leukemia using a BTK inhibitor” (Acerta Pharma B.V., priority 2014, dated 2019).
